For 86 sequences, target mRNA inhibition results are on record in the OligoGym collection.

The target of the data set is IRF4. The conditions noted are these: ASO.

Values joined by “and” are separate entries in the source; they are usually repeats but may differ in a detail not shown here. Equal values may be shown once. After the bases stand the sugars from the 5' end (letter, count) and the backbone: PS all phosphorothioate, else s phosphorothioate and o phosphodiester by linkage. Methylation of C is not given here. e = 2'-O-(2-methoxyethyl) (MOE); k = constrained ethyl (cEt); d = 2'-deoxy (DNA)

As to ATAGCTGTTTATTTCC (sugars k4 d8 k4, PS), the target mRNA inhibition (MM.1R, 0.074 µM) was determined as 7%; the target mRNA inhibition (MM.1R, 0.222 µM) came to 6%; the target mRNA inhibition (MM.1R, 0.666 µM) was determined as 11%; the target mRNA inhibition (MM.1R, 2 µM) was 32%; the target mRNA inhibition (SK-MEL-28, 0.185 µM) was -2% and -10% and -3%; the target mRNA inhibition (SK-MEL-28, 4 µM) came to 59%. The target mRNA inhibition (SK-MEL-28, 15 µM) is 81% and 79% and 91%. Consider AGCTTAGTCACCACGG (sugars k3 d10 k3, PS), for which the target mRNA inhibition (SK-MEL-28, 4 µM) was determined as 67%. On the same count and under the same terms, as for CACTTTAAAAGTTGAC (sugars k3 d10 k3, PS), the figure is 28%; as for CTTTAGTGTCGCCATG (sugars k3 d10 k3, PS), 29%. Turning to TAATCTGTATAGTTCT (sugars k3 d10 k3, PS), the target mRNA inhibition (MM.1R, 1 µM) came out at 42%.

Consider GGGAAAGAGCTTTGGT (sugars k3 d10 k3, PS), for which, for the setting “SK-MEL-28, 4 µM”, the target mRNA inhibition stood at 5%. As for TCATATGGCTAAACCT (sugars k3 d10 k3, PS), the target mRNA inhibition (SK-MEL-28, 4 µM) is 49%. CAAAAATGTCCCATCC (sugars k3 d10 k3, PS): under “SK-MEL-28, 4 µM”, the target mRNA inhibition came to 19%. GCTGAACCCCACAGGA (sugars k3 d10 k3, PS): the target mRNA inhibition (MM.1R, 1 µM) was determined as 0%. TTACATCCTAGAACAC (sugars k3 d10 k3, PS): where the note is “SK-MEL-28, 4 µM”, the target mRNA inhibition was 3%. On to AGCACCGTGTGGAAAG (sugars k3 d10 k3, PS), for which the target mRNA inhibition (SK-MEL-28, 4 µM) stood at 57%. Turning to CACTATGGTAGGAGTG (sugars k3 d10 k3, PS), where the note is “SK-MEL-28, 4 µM”, the target mRNA inhibition is -12%.

As for “TTATGTTAGCCAATTC (sugars kddddddddddkekek, PS)”, the target mRNA inhibition (MM.1R, 1 µM) was 2% and 6%. For the sequence AGCCATAGCAAATGGC (sugars k3 d10 k3, PS), for the setting “SK-MEL-28, 4 µM”, the target mRNA inhibition is 5%. In the case of TGGTAATCTTCTGGAT (sugars k3 d10 k3, PS), the target mRNA inhibition (SK-MEL-28, 4 µM) came to 24%. The same measure, in the same setting: as for GATTTCTAGGTAATCT (sugars k3 d10 k3, PS), the figure is 31%. For CCCATCGAATCTGCCC (sugars k3 d10 k3, PS), the target mRNA inhibition (MM.1R, 1 µM) was -24%. Turning to GCCCGGGAGAGCGGAG (sugars k3 d10 k3, PS), the target mRNA inhibition (MM.1R, 1 µM) is -32%. Still for that read-out and setting: as for GAGAGTAAACTTGGCT (sugars k3 d10 k3, PS), the figure is 12%. As to ACCCACCCAGTGTCTG (sugars k3 d10 k3, PS), where the note is “SK-MEL-28, 4 µM”, the target mRNA inhibition worked out at 18%. For CTGGAGGTCGAACCTC (sugars k3 d10 k3, PS), for the setting “SK-MEL-28, 4 µM”, the target mRNA inhibition worked out at 2%. AGTAAACTTGGCTGTG (sugars k3 d10 k3, PS): the target mRNA inhibition (SK-MEL-28, 4 µM) was determined as 38%. As for AGGCGCGGACGCACGG (sugars k3 d10 k3, PS), the target mRNA inhibition (SK-MEL-28, 4 µM) stood at 31%. AATCAGATGATGTCTA (sugars k3 d10 k3, PS): the target mRNA inhibition (SK-MEL-28, 4 µM) is -3%.

On to GGCTGAACTGTGTAAT (sugars k3 d10 k3, PS), for which, for the setting “SK-MEL-28, 4 µM”, the target mRNA inhibition came to 72%.

Regarding “CTATAGTGTTCCAGGA (sugars kkdddddddddkdkdk, PS)”, the target mRNA inhibition runs as follows: (MM.1R, 0.074 µM) 19%; (MM.1R, 0.222 µM) 23%; (MM.1R, 0.666 µM) 42%; (MM.1R, 1 µM) 49%; (MM.1R, 2 µM) 68%.

For the sequence CAGACCTTATGCTTGG (sugars k3 d10 k3, PS), under “SK-MEL-28, 4 µM”, the target mRNA inhibition worked out at 10%. Turning to GGCGGACACGCCCGAC (sugars k3 d10 k3, PS), the target mRNA inhibition (MM.1R, 1 µM) was found to be 7%. As for CTTGTCTCGCCGCAAT (sugars k3 d10 k3, PS), the target mRNA inhibition (SK-MEL-28, 4 µM) was 65% and 47%.

Regarding “GGCACATCAATGTTTT (sugars kkdddddddddekeke, PS)”, for the setting “MM.1R, 1 µM”, the target mRNA inhibition is 22% and 26%. Turning to “ATGTGTATTACTCTTA (sugars kkddddddddddkeke, PS)”, the target mRNA inhibition (MM.1R, 1 µM) was 47% and 48%. For the sequence GGCCCGGGCGCATCCC (sugars k3 d10 k3, PS), the target mRNA inhibition (SK-MEL-28, 4 µM) was 5%. With CAGCATGAGCTCGGTC (sugars k3 d10 k3, PS), the target mRNA inhibition (MM.1R, 1 µM) came out at 22%. In the case of CATGATGTATACCAAC (sugars k3 d10 k3, PS), the target mRNA inhibition (SK-MEL-28, 4 µM) worked out at 51%. For TTGAAAGACTAACTGG (sugars k3 d10 k3, PS), under “SK-MEL-28, 4 µM”, the target mRNA inhibition turned out to be 20%. For ACAGAGAGTCCGACGC (sugars k3 d10 k3, PS), under “MM.1R, 1 µM”, the target mRNA inhibition is -8%.

As to ATCAGATACACACCCT (sugars k3 d10 k3, PS), the target mRNA inhibition (SK-MEL-28, 4 µM) was -8%.

Take CAACAGTTCAAGTATT (sugars k3 d10 k3, PS): for the setting “SK-MEL-28, 4 µM”, the target mRNA inhibition is 35%. Consider AAGAAACGAGTTGACA (sugars k3 d10 k3, PS), for which, where the note is “SK-MEL-28, 4 µM”, the target mRNA inhibition came to 22%. Regarding TACCGCATTGCTAGAT (sugars k3 d10 k3, PS), the target mRNA inhibition (SK-MEL-28, 4 µM) turned out to be 23%. “ACTGCTTGAGGTTTTC (sugars kkkddddddddkekek, PS)”: the target mRNA inhibition (MM.1R, 1 µM) turned out to be 32%.

Take AAGGTCTGAGTTGTAC (sugars k3 d10 k3, PS): under “MM.1R, 1 µM”, the target mRNA inhibition was determined as 20%. Regarding CTCTGACAAGAACTGC (sugars k3 d10 k3, PS), where the note is “SK-MEL-28, 4 µM”, the target mRNA inhibition is 30%. As to TAGTTGTCTGGCTAGC (sugars k3 d10 k3, PS), the target mRNA inhibition by setting is: (MM.1R, 0.0625 µM) 4% and 7%; (MM.1R, 0.25 µM) 16% and 24%; (MM.1R, 1 µM) 32% and 33%; (MM.1R, 4 µM) 68%. On to AGCTGTATTTATGCCC (sugars k3 d10 k3, PS), for which the target mRNA inhibition (SK-MEL-28, 4 µM) amounted to 58%. For the sequence CCTCAGTTTGTGAAGC (sugars k3 d10 k3, PS), the target mRNA inhibition (SK-MEL-28, 4 µM) amounted to 69%. CGAAAAGACTGGAGTG (sugars k3 d10 k3, PS): where the note is “MM.1R, 1 µM”, the target mRNA inhibition was determined as 26%. As to TTTAAGTCATGTGTCA (sugars k3 d10 k3, PS), where the note is “SK-MEL-28, 4 µM”, the target mRNA inhibition stood at 50%.

For the sequence “CAAGCAGTGATGTCAG (sugars kkdddddddddkdkdk, PS)”, the target mRNA inhibition (MM.1R, 1 µM) was 46% and 49%. Consider “AGTTCATGTAAAGTCT (sugars kkdddddddddekeke, PS)”, for which, for the setting “MM.1R, 1 µM”, the target mRNA inhibition is 51% and 49%. Take TGAATAGAGGAATGGC (sugars k3 d10 k3, PS): the target mRNA inhibition (SK-MEL-28, 4 µM) came to 21%. Same read-out and setting: with GGAATGGCGGATAGAT (sugars k3 d10 k3, PS) the figure was 33%; with GTAGGTAGGCACCTGT (sugars k3 d10 k3, PS), 75%.

In the case of GGAGGATCATAAAGGA (sugars k3 d10 k3, PS), the target mRNA inhibition (MM.1R, 1 µM) came to 32%. With CCCTTGCTGCAAATCC (sugars k3 d10 k3, PS), where the note is “MM.1R, 1 µM”, the target mRNA inhibition is -4%. In the case of ATTTTATGGACCACGC (sugars k3 d10 k3, PS), the target mRNA inhibition (SK-MEL-28, 4 µM) worked out at 49%.

For the sequence GACAGCATAGCATTAT (sugars k3 d10 k3, PS), the target mRNA inhibition (SK-MEL-28, 4 µM) was 72% and 77%.

For the sequence AGTGGAGGTCTTTGGG (sugars k3 d10 k3, PS), the target mRNA inhibition (SK-MEL-28, 4 µM) worked out at 55%. In the case of “CTTGATAAAGGCTGAA (sugars kkddddddddddkeke, PS)”, where the note is “MM.1R, 1 µM”, the target mRNA inhibition worked out at 4%. ATCGAGATCAGTCTCA (sugars k3 d10 k3, PS): where the note is “SK-MEL-28, 4 µM”, the target mRNA inhibition was 76%. For the sequence CTTTATAGTAGGTAAG (sugars k3 d10 k3, PS), the target mRNA inhibition (MM.1R, 1 µM) is -1%. On the same count and under the same terms, with GGAACTAGTCGACAGC (sugars k3 d10 k3, PS) the figure was 18%.

On to AGAGTGGGTGTTGGCC (sugars k3 d10 k3, PS), for which the target mRNA inhibition (SK-MEL-28, 4 µM) worked out at 25%. Still for that read-out and setting: with CATAGCTAGTTCATTC (sugars k3 d10 k3, PS) the figure was 35%. Take TTCTAGCTAACTTACA (sugars k3 d10 k3, PS): the target mRNA inhibition (MM.1R, 1 µM) was -18%. Turning to “TAGTATGAGAAACGGC (sugars kkkdddddddddkeke, PS)”, the target mRNA inhibition by setting is: (MM.1R, 0.074 µM) 8%; (MM.1R, 0.222 µM) 29%; (MM.1R, 0.666 µM) 50%; (MM.1R, 1 µM) 62%; (MM.1R, 2 µM) 71%. For “CTGCTTGAGGTTTTCC (sugars kkddddddddddkeke, PS)”, the target mRNA inhibition (MM.1R, 1 µM) was 44%.

As to TGAAATGTCAAACCCT (sugars k3 d10 k3, PS), the target mRNA inhibition (SK-MEL-28, 4 µM) stood at 54%. GAAACGAGTTGACACA (sugars k3 d10 k3, PS): the target mRNA inhibition (MM.1R, 1 µM) came to 0%. As for TTTAGTATCACCTCTA (sugars k3 d10 k3, PS), the target mRNA inhibition (MM.1R, 1 µM) was 30%. In the case of CCTGAGACAGACTTCC (sugars k3 d10 k3, PS), the target mRNA inhibition (SK-MEL-28, 4 µM) stood at 55%. In the case of TCAGATACACACCCTC (sugars k3 d10 k3, PS), the target mRNA inhibition (SK-MEL-28, 4 µM) is 37%. On to TCACAGGTAAGGGCCC (sugars k3 d10 k3, PS), for which the target mRNA inhibition (SK-MEL-28, 4 µM) was determined as 47%.

Take GCGACTGCTGAAAACC (sugars k3 d10 k3, PS): the target mRNA inhibition (MM.1R, 1 µM) was -4%. Consider GAGATATAAATAGCTG (sugars k3 d10 k3, PS), for which the target mRNA inhibition (SK-MEL-28, 4 µM) is 51%. As to GATGCTCAGAATGAAG (sugars k3 d10 k3, PS), the target mRNA inhibition (SK-MEL-28, 4 µM) stood at 43%. Regarding GGCCTTGCCAGTGGTG (sugars k3 d10 k3, PS), the target mRNA inhibition (SK-MEL-28, 4 µM) was -12%. Consider AGCGACCCAAATGTGG (sugars k3 d10 k3, PS), for which the target mRNA inhibition (MM.1R, 1 µM) was -2%.

On to AACGGCCTGGAGGTGA (sugars k3 d10 k3, PS), for which the target mRNA inhibition (MM.1R, 1 µM) is 1%. Regarding AGGCTCCTACCCGCCT (sugars k3 d10 k3, PS), the target mRNA inhibition (SK-MEL-28, 4 µM) is 6%. In the case of “CCTCAGTTTGTGAAGC (sugars e1 k2 d9 k2 e2, PS)”, where the note is “MM.1R, 1 µM”, the target mRNA inhibition stood at 11%. Regarding CTCTACTGGAGTCAAG (sugars k3 d10 k3, PS), the target mRNA inhibition (SK-MEL-28, 4 µM) turned out to be 25%.

On to “ATGTGATAGCTGAGCT (sugars kkdddddddddkekek, PS)”, for which the target mRNA inhibition (MM.1R, 1 µM) is 24%.

With GTGACATAAAGGACCC (sugars k3 d10 k3, PS), the target mRNA inhibition (MM.1R, 1 µM) was 10%.

In the case of TCCCAAGATCGAGCGG (sugars k3 d10 k3, PS), the target mRNA inhibition (SK-MEL-28, 4 µM) stood at 16%. For TAAGTGATAGGTATAC (sugars k3 d10 k3, PS), the target mRNA inhibition (SK-MEL-28, 4 µM) was determined as 60%.
